Measured values published in US20240226241A1, “FORMULATIONS FOR INTRAOCULAR DELIVERY OF PEPTIDES DERIVED FROM TYPE IV COLLAGEN” (AsclepiX Therapeutics, Inc., priority 2022, published 2024).
No end group written: not given here.

Columns and labels:
[1] = Tolerability after suprachoroidal injection (ocular examination, tonometry, OCT, H&E histopathology); details: for tolerability: 100 μL SCh injection in both eyes on Day 0, to Day 90
Description: This example evaluates the pharmacokinetics (PK)/tolerability of the AXT107 suspension (5% sucrose, 0.9% NaCl) at 4 different dose levels administered by suprachoroidal (Sch) injection in female Dutch Belted rabbits. In Phase 1 of these experiments, animals received a 100 μL SCh injection in both eyes on Day 0.
Ocular examinations were performed at baseline, and on Days 1, 3, 7, 15, 30, 60, and 90. […] Tonometry was performed at baseline, and on Days 1, 3, 7, 15, 30, 60, and 90. […] Optical coherence tomography (OCT) was performed at baseline, post-dose to confirm SCh dosing, and on Day 15.
All eyes in Groups 1 and 2 and two Group 3 eyes were collected and dissected. […] From Group 3, two eyes were collected and processed for hematoxylin & eosin (H&E) histopathology.
In the next studies, animals received a 100 μL SCh injection (of AXT107 suspension, 5% sucrose and 0.9% NaCl) in both eyes on Day 0. […] Ocular examinations were performed at baseline and on Days 1, 9, 30, 60, and 90.
Tonometry was performed at baseline and on Days 1, 9, 30, 60, and 90.
OCT was performed at baseline, post-dose to confirm SCh dosing, and in terminal animals on Days 15 and 30.
On Day 90, an additional Group 1 animal was euthanized and OU were processed for H&E histopathology.

[2] = Pharmacokinetics after suprachoroidal injection, LC/MS/MS of plasma and ocular tissues; details: SCh injection
Description: (§1) This example evaluates the pharmacokinetics (PK)/tolerability of the AXT107 suspension (5% sucrose, 0.9% NaCl) at 4 different dose levels administered by suprachoroidal (Sch) injection in female Dutch Belted rabbits. In Phase 1 of these experiments, animals received a 100 μL SCh injection in both eyes on Day 0. In these experiments, Group 1 received 469 μg of AXT107 peptide, Group 2 received 246 μg of AXT107 peptide, and Group 3 received vehicle (i.e., 5% sucrose in saline).
(§2) Blood was collected from Group 3 pre-dose, and in terminal animals on Day 90, and was processed for plasma. All eyes in Groups 1 and 2 and two Group 3 eyes were collected and dissected. Blood and ocular tissues underwent PK analysis.
(§3) In the next studies, animals received a 100 μL SCh injection (of AXT107 suspension, 5% sucrose and 0.9% NaCl) in both eyes on Day 0. Group 1 animals received 340 μg of AXT107 peptide, Group 2 animals received 219 μg AXT107 peptide, Group 3 animals received 142 μg of AXT107 peptide, and Group 4 animals received 115 μg AXT107 peptide.
(§4) On Days 1, 15, 30, 60, and 90, n=2 animals/group were euthanized and plasma and ocular tissues were collected for PK.
(§5) Plasma and ocular tissues collected during the study were analyzed for AXT107 peptide PK parameters by non-GLP liquid chromatography with tandem-mass spectrometry (LC/MS/MS).

[3] = rabbit, in vivo
Description: as §1, §2, §3, §4, §5

Sequence: LRRFSTAPFAFIDINDVINF [AXT107 peptide]
- H&E histopathology of eyes ([1]; Group 1 (340 μg), Day 90, both eyes, considered incidental (needle damage), unrelated to AXT107): mild mononuclear cell infiltrate in the limbal conjunctiva
- tolerability ([1]; Phase 1: 469 μg and 246 μg): well tolerated
- tolerability ([1]; all doses): well tolerated
- drug levels in retina [2]: present
- drug levels in aqueous humor ([2]; all timepoints): absent
- drug levels in plasma ([2]; all timepoints): absent
- drug levels in choroid/RPE [3]: present
